Reference: ChEMBL document CHEMBL1138038, “Sequence-based design and discovery of peptide inhibitors of HIV-1 integrase: insight into the binding mode of the enzyme” (J Med Chem, 2006)
Residues, ends and D or L forms follow the SMILES beside them.

How the values were obtained:
[1] = target: T1, Human immunodeficiency virus type 1 integrase (Human immunodeficiency virus 1, UniProt Q7ZJM1); assay: Inhibition of wild type HIV1 integrase 3' processing activity
[2] = target: T1, Human immunodeficiency virus type 1 integrase; assay: Inhibition of wild type HIV1 integrase strand transfer activity

T1 sequence (Q7ZJM1 whole entry): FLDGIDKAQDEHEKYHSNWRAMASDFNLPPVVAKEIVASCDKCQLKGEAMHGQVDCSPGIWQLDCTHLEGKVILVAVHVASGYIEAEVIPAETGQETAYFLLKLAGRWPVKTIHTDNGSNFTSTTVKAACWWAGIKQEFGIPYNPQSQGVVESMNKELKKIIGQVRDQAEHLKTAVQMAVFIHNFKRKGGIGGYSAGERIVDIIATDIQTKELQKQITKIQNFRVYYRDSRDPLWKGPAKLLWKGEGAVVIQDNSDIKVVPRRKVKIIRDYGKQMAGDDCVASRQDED

Row | IC50 [1] [µM] | IC50 [2] [µM] | Compound
1 | 3.5 | 4 | CC(C)C[C@@H](NC(=O)[C@@H](C)NC(=O)CNC(=O)[C@@H](CCCN=C(N)N)NC(=O)[C@H](N)Cc1c[nH]c2ccccc12)C(=O)N[C@H](CCCCN)C(=O)N[C@H](CC(C)C)C(=O)N[C@H](CC(C)C)C(=O)N[C@H](Cc1ccccc1)C(=O)N[C@H](Cc1ccc(O)cc1)C(=O)N[C@H](C)C(=O)N[C@@H](C(=O)O)[C@H](C)O
2 | > 1000 | > 1000 | CC[C@@H](C)[C@@H](NC(=O)[C@@H](CCCCN)NC(=O)[C@@H](CCC(N)=O)NC(=O)[C@@H](CCC(=O)O)NC(=O)[C@H](N)Cc1ccccc1)C(=O)NCC(=O)N[C@H](C)C(=O)N[C@H](Cc1c[nH]c2ccccc12)C(=O)N[C@H](Cc1c[nH]c2ccccc12)C(=O)N[C@@H](CS)C(=O)N[C@H](C)C(=O)O
3 | > 1000 | > 1000 | CC[C@@H](C)[C@@H](NC(=O)CNC(=O)[C@@H](C)NC(=O)[C@@H](Cc1c[nH]c2ccccc12)NC(=O)[C@@H](Cc1c[nH]c2ccccc12)NC(=O)[C@@H](CS)NC(=O)[C@@H](C)N)C(=O)N[C@H](CCCCN)C(=O)N[C@H](CCC(N)=O)C(=O)N[C@H](CCC(=O)O)C(=O)N[C@H](Cc1ccccc1)C(=O)O
4 | 96 | 16 | CC(C)C[C@@H](NC(=O)[C@@H](CCCCN)NC(=O)[C@@H](CC(C)C)NC(=O)[C@@H](CC(C)C)NC(=O)[C@@H](Cc1ccccc1)NC(=O)[C@@H](Cc1ccc(O)cc1)NC(=O)[C@@H](C)NC(=O)[C@H](N)[C@H](C)O)C(=O)N[C@H](C)C(=O)NCC(=O)N[C@H](CCCN=C(N)N)C(=O)N[C@H](Cc1c[nH]c2ccccc12)C(=O)O
5 | > 1000 | > 1000 | CC[C@H](C)[C@H](NC(=O)[C@H](CCCCN)NC(=O)[C@H](CCC(N)=O)NC(=O)[C@H](CCC(=O)O)NC(=O)[C@@H](N)Cc1ccccc1)C(=O)NCC(=O)N[C@@H](C)C(=O)N[C@@H](Cc1c[nH]c2ccccc12)C(=O)N[C@@H](Cc1c[nH]c2ccccc12)C(=O)N[C@@H](CS)C(=O)N[C@@H](C)C(=O)O
6 | 118 | 19 | CC(C)C[C@H](NC(=O)[C@H](CCCCN)NC(=O)[C@H](CC(C)C)NC(=O)[C@H](CC(C)C)NC(=O)[C@H](Cc1ccccc1)NC(=O)[C@H](Cc1ccc(O)cc1)NC(=O)[C@H](C)NC(=O)[C@@H](N)[C@@H](C)O)C(=O)N[C@@H](C)C(=O)N[C@@H](C)C(=O)N[C@@H](CCCN=C(N)N)C(=O)N[C@@H](Cc1c[nH]c2ccccc12)C(=O)O
7 | > 2000 | > 2000 | CC(C)C[C@H](NC(=O)[C@H](CCC(N)=O)NC(=O)[C@H](CS)NC(=O)[C@H](CCCCN)NC(=O)[C@H](CC(=O)O)NC(=O)[C@H](CS)NC(=O)[C@H](CO)NC(=O)[C@H](C)N)C(=O)N[C@@H](CCCCN)C(=O)NCC(N)=O (H-ASCDKCQLKG-NH2)
8 | 1000 | 1000 | CC[C@H](C)[C@H](NC(=O)CNC(=O)[C@@H]1CCCN1C(=O)[C@H](CO)NC(=O)[C@H](CS)NC(=O)[C@H](CC(=O)O)NC(=O)[C@@H](NC(=O)[C@H](CCC(N)=O)NC(=O)CNC(=O)[C@@H](N)Cc1cnc[nH]1)C(C)C)C(=O)N[C@@H](Cc1c[nH]c2ccccc12)C(=O)N[C@@H](CCC(N)=O)C(=O)N[C@@H](CC(C)C)C(=O)N[C@@H](CC(=O)O)C(=O)N[C@@H](CS)C(=O)N[C@H](C(=O)N[C@@H](Cc1cnc[nH]1)C(N)=O)[C@@H](C)O (H-HGQVDCSPGIWQLDCTH-NH2)
9 | 277 | 311 | H-AAWWAGIKQEF-OH
10 | 100 | 47 | H-AAYFLLKLAGRW-OH
11 | 33 | 34 | H-ACAWAGIKQEF-OH
12 | 46 | 16 | H-ACGWAGIKQEF-NH2
13 | > 333 | > 333 | H-ACWAAGIKQEF-OH
14 | > 333 | > 333 | H-ACWGAGIKQEF-NH2
15 | 90 | 43 | H-ACWWAAIKQEF-OH
16 | > 100 | 60 | H-ACWWAG-NH2
17 | > 333 | > 333 | H-ACWWAGAKQEF-OH
18 | 62 | 55 | H-ACWWAGIAQEF-OH
19 | > 333 | > 333 | H-ACWWAGIKAEF-OH
20 | > 333 | > 333 | H-ACWWAGIKQAF-OH
21 | 245 | 206 | H-ACWWAGIKQEA-OH
22 | 95 | 56 | H-ACWWAGIKQEF-NH2
23 | > 333 | > 333 | H-ACWWAGIRQEF-NH2
24 | 294 | 163 | H-ASWWAGIKQEF-NH2
25 | > 2000 | > 2000 | H-EEHEKYHSNW-NH2
26 | > 2000 | > 2000 | H-ESMNKELKKI-NH2

Row | IC50 [1] [µM] | IC50 [2] [µM] | Compound
27 | > 1000 | > 1000 | H-FGIPYNPQSQ-NH2
28 | > 2000 | > 2000 | H-FIHNFKRK-NH2
29 | > 2000 | > 2000 | H-GRWPVKT-NH2
30 | > 2000 | > 2000 | H-GYSAGERIVD-NH2
31 | > 2000 | > 2000 | H-HTDNGSNF-NH2
32 | > 100 | > 100 | H-IKQEF-NH2
33 | > 100 | > 100 | H-KLAGRW-NH2
34 | > 2000 | > 2000 | H-PAETGQET-NH2
35 | 193 | 119 | H-TAAFLLKLAGRW-OH
36 | 186 | 11 | H-TASFLLKLAGRW-NH2
37 | > 333 | > 333 | H-TAYALLKLAGRW-OH
38 | 115 | 51 | H-TAYFALKLAGRW-OH
39 | > 333 | > 333 | H-TAYFLAKLAGRW-OH
40 | 500 | 500 | H-TAYFLL-NH2
41 | 113 | 56 | H-TAYFLLALAGRW-OH
42 | 4.1 | 3 | H-TAYFLLILAGRW-NH2
43 | > 333 | 106 | H-TAYFLLKAAGRW-OH
44 | 83 | 80 | H-TAYFLLKLAGAW-OH
45 | > 333 | > 333 | H-TAYFLLKLAGRA-OH
46 | 315 | 38 | H-TAYFLLKLAGRL-NH2
47 | > 2000 | > 2000 | H-VHVASGY-NH2
48 | > 1000 | > 1000 | H-VPRRKAKI-NH2
49 | > 2000 | > 2000 | H-VRDQAEHLKT-NH2
50 | > 100 | > 100 | H-WAGIKQ-NH2
51 | > 1000 | > 1000 | H-WKGPAKLLWK-NH2

Row | Compound | IC50 [1] [µM] | IC50 [2] [µM]
52 | CC(C)C[C@@H](NC(=O)[C@@H](CCCCN)NC(=O)[C@@H](CC(C)C)NC(=O)[C@@H](CC(C)C)NC(=O)[C@@H](Cc1ccccc1)NC(=O)[C@@H](Cc1ccc(O)cc1)NC(=O)[C@@H](C)NC(=O)[C@H](N)[C@H](C)O)C(=O)N[C@H](C)C(=O)NCC(=O)N[C@H](CCCN=C(N)N)C(=O)N[C@H](Cc1c[nH]c2ccccc12)C(N)=O | 65 | 13
53 | CC(C)C[C@H](NC(=O)[C@H](CCCCN)NC(=O)[C@H](CC(C)C)NC(=O)[C@H](CC(C)C)NC(=O)[C@H](Cc1ccccc1)NC(=O)[C@H](Cc1ccc(O)cc1)NC(=O)[C@H](C)NC(=O)[C@@H](N)[C@@H](C)O)C(=O)N[C@@H](C)C(=O)NCC(=O)N[C@@H](CCCN=C(N)N)C(=O)N[C@@H](Cc1c[nH]c2ccccc12)C(N)=O | 21 | 2.7
54 | H-YFLLKL-NH2 | 20 | 20
